Measured values: US7244446B2, “Method for providing long-lasting pain diminishment through topical or intranasal administration of civamide” (Winston Laboratories, Inc., priority 2003, dated 2007)

How the values were obtained:
[1] = system: painful, inflammatory or allergic disorders; details: compositions containing civamide; from U.S. Pat. No. 5,063,060; cited from earlier work
[2] = system: patients with episodic cluster headaches; test: Episodic cluster headache patients, 0.025% civamide intranasally once daily for seven days, three-week follow-up; format: in vivo, human; details: 0.1 ml of 0.025% civamide in aqueous vehicle, each nostril, 7 days
Experimental: Patients with episodic cluster headaches were treated with 0.1 ml of 0.025% civamide in an aqueous vehicle given once daily intranasally to each nostril for seven days. Following completion of the seven-day treatment period, cluster headache patients were followed for another three weeks during which they received no treatment.

[3] = system: patients with episodic cluster headache; test: Episodic cluster headache patients, 0.01% civamide metered nasal spray twice daily for seven days, six-week follow-up; format: in vivo, human; details: 0.01% civamide in aqueous vehicle, 7 days
Experimental: Patients with episodic cluster headache were treated with 0.01% civamide in an aqueous vehicle delivered by metered nasal spray twice daily for seven days. The patients were then followed for an additional six weeks after treatment.

[4] = system: patients with long-standing painful osteoarthritis of the knees; test: Painful osteoarthritis of the knees, 0.075% civamide cream three times daily for two to four weeks, then discontinued; format: in vivo, human; details: 0.075% civamide in cream vehicle, topical
Source text: Patients with long-standing painful osteoarthritis of the knees applied 0.075% civamide in a cream vehicle three times daily for two to four weeks, and then the medication was discontinued. Relief of painful osteoarthritis continued for as long as 2–4 months after discontinuing the medication.

COc1cc(CNC(=O)CCCC/C=C\C(C)C)ccc1O [civamide, cis-8-methyl-N-vanillyl-6-nonenamide]
Efficacy compared with compositions containing capsaicin [1]: comparable in efficacy to compositions containing capsaicin
Local adverse effects compared with capsaicin [1]: significantly less local adverse effects normally associated with capsaicin
Headache frequency three weeks after treatment versus during or immediately after treatment ([2]; three weeks after completion): lower three weeks following completion of treatment than during or immediately after the treatment period
Frequency of cluster headaches after completion of treatment ([2]; three weeks follow-up without treatment): decreased continuously over the three weeks following completion of the short course (7 days) of treatment
Frequency of cluster headache over follow-up ([3]; six weeks follow-up): declined continuously over the six-week period
Reduction in headaches during week six ([3]; week six after treatment): ~65%
Duration of relief of painful osteoarthritis after discontinuing the medication [4]: 2–4 months
